These results are taken from patent US20220204491A1, “FXR (NR1H4) MODULATING COMPOUNDS” (Gilead Sciences, Inc., priority 2019, published 2022).

The target of the experiment is T1, human FXR alpha ligand binding domain (LBD) (Homo sapiens, UniProt Q96RI1).
T1 construct: made in house; host or cells: E. coli BL21(DE3), vector pDEST15
T1 sequence (Q96RI1 187-472 isoform Q96RI1-2): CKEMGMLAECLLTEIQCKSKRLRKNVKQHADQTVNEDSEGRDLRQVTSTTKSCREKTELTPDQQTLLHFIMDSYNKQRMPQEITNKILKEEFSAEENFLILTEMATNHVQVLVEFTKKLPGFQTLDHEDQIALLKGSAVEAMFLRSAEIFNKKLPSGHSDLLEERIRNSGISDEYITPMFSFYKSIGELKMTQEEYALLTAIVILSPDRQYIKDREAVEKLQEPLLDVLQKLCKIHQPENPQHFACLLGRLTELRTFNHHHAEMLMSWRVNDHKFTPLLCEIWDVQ
The experiment can be described thus: FRET activity assay (FXR-LBD / SRC-1 cofactor peptide interaction, LANCE). In kind it is biochemical. Particulars: GST-FXR-LBD, biotinylated SRC-1 peptide 676-700. Here is the method:
Determination of a ligand mediated cofactor peptide interaction to quantify ligand binding to the nuclear receptor FXR was performed as follows.
Preparation of human FXR alpha ligand binding domain (LBD): The human FXRalpha LBD was expressed in E. coli strain BL21(DE3) as an N-terminally GST tagged fusion protein. The DNA encoding the FXR ligand binding domain was cloned into vector pDEST15 (Invitrogen). Expression was under control of an IPTG inducible T7 promoter. The amino acid boundaries of the ligand binding domain were amino acids 187-472 of Database entry NM 005123 (RefSeq). Expression and purification of the FXR-LBD: An overnight preculture of a transformed E. coli strain was diluted 1:20 in LB-Ampicillin medium and grown at 30° C. to an optical density of OD600=0.4−0.6. Gene expression was then induced by addition of 0.5 mM IPTG. Cells were incubated an additional 6 h at 30° C., 180 rpm. Cells were collected by centrifugation (7000×g, 7 minutes, room temperature). […] The protein was analysed by SDS-Page.
The method measures the ability of putative ligands to modulate the interaction between the purified bacterially expressed FXR ligand binding domain (LBD) and a synthetic biotinylated peptide based on residues 676-700 of SRC-1 (LCD2, 676-700). […] The ligand binding domain (LBD) of FXR was expressed as fusion protein with GST in BL-21 cells using the vector pDEST15. […] For ease of handling and reduction of background from compound fluorescence LANCE technology makes use of generic fluorophore labels and time resolved detection Assays were done in a final volume of 25 μL in a 384 well plate, in a Tris-based buffer (20 mM Tris-HCl pH 7.5; 60 mM KCl, 5 mM MgCl2; 35 ng/μL BSA), containing 20-60 ng/well recombinantly expressed FXR-LBD fused to GST, 200-600 nM N-terminally biotinylated peptide, representing SRC1 aminoacids 676-700, 200 ng/well Streptavidin-xlAPC conjugate (Prozyme) and 6-10 ng/well Eu W1024-antiGST (Perkin Elmer). […] The LANCE signal was detected by a Perkin Elmer VICTOR2VTM Multilabel Counter. […]

`O=C(O)c1ccc(N2CC(O)(c3ccc(OCc4c(-c5c(Cl)cccc5Cl)noc4C4CC4)cc3Cl)C2)nc1` [Comparative Example 2] yielded an EC50 of 3.4 nM. The compound `O=C(O)c1ccc(N2CC(O)(c3ccc(OCc4c(-c5c(Cl)cc(F)cc5Cl)noc4C4CC4)cc3Cl)C2)nc1` [Example 1, 6-(3-(2-chloro-4-((5-cyclopropyl-3-(2,6-dichloro-4-fluorophenyl)isoxazol-4-yl)methoxy)phenyl)-3-hydroxyazetidin-1-yl)nicotinic acid] had a half-maximal effective concentration (EC50) of 14.2 nM. Then `O=C(O)c1cnc(N2CC(O)(c3ccc(OCc4c(-c5c(Cl)cc(F)cc5Cl)noc4C4CC4)cc3Cl)C2)c(F)c1` [Comparative Example 1, 6-(3-(2-chloro-4-((5-cyclopropyl-3-(2,6-dichloro-4-fluorophenyl)isoxazol-4-yl)methoxy)phenyl)-3-hydroxyazetidin-1-yl)-5-fluoronicotinic acid], with 7.5 nM.

The EC50 is the concentration giving half of the maximal effect. Lower therefore signals higher potency in that assay.
